# Measurements published in patent publication US8981046B2, “Synthetic cell platforms and methods of use thereof” (The Regents of the University of California, priority 2007, dated 2015).
# How the values were obtained:
# H1 hES cells = test: H1 hES cell culture on peptide-conjugated IPN surfaces in NC-SFM; assay type: cell-based, human; conditions: for hESC culture outcome (Oct4, survival): H1 cells, NC-SFM, peptide-conjugated IPN
# Method: To take an important step towards a fully chemically defined microenvironment, H1 hES cells were cultured,^17 for which a serum-free, defined medium has been developed. In addition, this feeder-free system involves culturing cells on tissue culture polystyrene coated with Matrigel, an ECM mixture of predominantly […], collagen IV, and heparan sulfate.^19, 82 Cells were grown in non-conditioned, serum free medium (NC-SFM), which consists of X-VIVO 10 (Cambrex, Walkersville, Md.) medium supplemented with 0.5 ng/mL TGF-β1 and 80 ng/mL FGF-2 (Invitrogen).
# Cultures on Matrigel consisted of Oct4^+ hESC colonies interspersed with differentiated, Oct4-stromal cells derived from the hESCs, as previously described (note that the hESCs can be selectively passaged by timing the enzymatic digest).^82 H1 cells were also cultured in the NC-SFM on bsp-RGD(15) conjugated IPN surfaces (identical to those in FIGS. 3-4). […] Both HSF6 cells on the sIPN (FIG. 7) and H1 cells on the IPN were able to maintain Oct4 expression for 3 passages (˜10 days).
# neural stem cells [1] = test: qRT-PCR marker expression / differentiation of NSCs on peptide-modified hydrogels; assay type: cell-based, rat
# Excerpt: Stem cells are defined not only by their self-renewal but also their ability to undergo differentiation into one or more phenotypes. […] Therefore, the synthetic IPN, displaying an integrin-binding peptide, was able to substitute for laminin in supporting NSC proliferation and differentiation.
# The effects of varying peptide identity and density on NSC differentiation were explored.
# The box plots summarize the distribution of points, where the thick line signifies the median and the ends of the box are the 25th and 75th quartiles.
# neural stem cells [2] = test: NSC adhesion and proliferation on peptide-modified IPNs; assay type: cell-based, rat
# Excerpt: Neural stem cells are typically cultured on surfaces consisting of a poly(styrene)-based material with a passively adsorbed, animal-derived extracellular matrix (ECM) protein such as laminin or fibronectin.^67, 69 However, both animal- and human-derived ECM or proteins likely contain variable splice and glycoforms, offer limited micro- and nano-scale control of solid-phase signaling, pose problems with lot to lot variability, and otherwise present problems for therapeutic application.^16, 70 The ability of a peptide-modified interpenetrating polymer network (IPN) synthesized from acrylamide (AAm), poly(ethylene glycol) monomethyl ether monomethacrylate (pEGMA), and acrylic acid (AAc) monomers to support NSC growth was explored. NSCs isolated from the adult rat hippocampus,^67 were seeded onto 15 amino-acid bone sialoprotein RGD peptide [bsp-RGD(15)]-modified IPNs at various cell densities over four orders of magnitude.
# FIG. 3.a-d) Bright field images of neural stem cells grown on peptide-modified IPNs or laminin-I in proliferating media conditions (1.2 nM FGF-2). e) Growth curves for proliferation of neural stem cells as assayed by a total nucleic acid stain. Data represent mean±standard deviation of 3-5 samples. Surfaces not in the same group (*, §, †, or ‡) were statistically different from one another (p<0.05; ANOVA between groups with Tukey-Kramer Honestly Significant Difference post-hoc test).
# neural stem cells [3] = test: NSC proliferation on peptide-grafted IPNs after 5 days (Cyquant); assay type: cell-based, rat; conditions: for cell proliferation: Cyquant, normalized to cells seeded
# Excerpt: Cell proliferation was quantified on peptide-grafted IPN surfaces after 5 days with Cyquant. The cell number was normalized to the amount of cells seeded on the IPN surfaces.
# Akt = Akt activation in neural stem cells on peptide hydrogels (Western blotting); assay type: cell-based, rat; conditions: NSCs on biomimetic hydrogel
# Excerpt: The phosphoinositide-3 kinase (PI 3-kinase) signaling pathway, which can be activated by numerous cell surface receptors, has been implicated in regulating cell survival and proliferation in a number of contexts.^90-92 After ligation and activation of canonical receptors, phosphorylation of receptor tails on specific tyrosine residues recruits PI 3-kinase to the cell surface to phosphorylate phosphoinositide lipids. These lipids then recruit several kinases, including PDK1 and Akt. Phosphorylation of the latter by the former activates Akt, which then modulates a number of downstream effectors (such as Bad, mTOR, forkhead transcription factors, GSK-3β, and others) important in cell survival, proliferation, and other functions.^92, 93 Very importantly, PI 3-kinase and Akt signaling may be a general pathway important for stem cell proliferation and self-renewal. […] Finally, chemical or genetic inhibition of this pathway inhibits self-renewal, whereas overexpression of transducers in this pathway promotes self-renewal in a mitogen-independent fashion.
# FIG. 8. […] Likewise relocalization of a PH-GFP genetic sensor to the cell surface acts as a sensor of PI 3-kinase signal activation after FGF-2 addition. An analogous genetic sensor of Akt based on FRET has been generated.^6
# neural stem cells [4] = test: Initial NSC attachment on peptide-grafted IPNs (Cyquant, 6 hours); assay type: cell-based, rat; conditions: various grafting concentrations
# Method: IPNs were grafted with RGD, 7C-9, and 7C-24 peptides at various concentrations. After allowing neural stem cells attach to the surface for 6 hours, the amount of cells was quantified with Cyquant, a fluorescent DNA-binding dye.
# neural stem cells [5] = test: Flow cytometry binding of clonal peptide-displaying bacteria to neural stem cells; set-up: species or system rat; conditions: clonal bacterial populations after third round of selection
# Excerpt: This technology has also been used to identify peptides capable of binding to the surface of adult neural stem cells. Both N- and C-terminal peptide display libraries were screened on NSCs, with the first two rounds selected through centrifugal pelleting of NSCs to isolate bacterial clones displaying binding peptides, and the third round selected through FACS. Following the third round, numerous peptide clones were sequenced (˜30 novel sequences determined to date).
# Three different, validated peptide libraries were pooled to generate a large library (>10^10 independent clones) and were used for selection and screening.^79 These libraries include a random 15-mer (—X15—) fused to either the N- or C-terminus of the CPX display scaffold and an N-terminal constrained library of the form X2CX7CX2. The library has been made intrinsically fluorescent using a bicistronic expression vector to enable co-expression of a green fluorescent protein optimized for FACS.
# The bacterial library was screened for binding peptides. For the first two cycles, screening was again conducted by co-sedimentation, where as many as 10^8 NSCs suspended via mechanical disruption in 0.5 mM EDTA as described^82 were incubated with 10^10 bacteria prior to several gentle centrifugations and rinses. The resulting mixture was added directly to bacterial media (LB) for expansion of the binding clones. The second cycle repeated this process with 10-fold fewer bacteria for higher stringency. In the third cycle, after incubation with 10^6 NSCs and washing, cells were sorted (as in FIGS. 5-6) using a DAKO-Cytomation MoFlo flow cytometer in the UC Berkeley Cancer Center to stringently isolate bacteria that are bound to NSCs. The resulting sorted bacteria were expanded. Plasmid DNA was isolated from a number of individual clones (at least 100)^79 and subjected to DNA sequencing to identify the peptide responsible for binding to the NSC surface.
# Bacterial peptide display libraries were constructed, as described above, and tested for binding capacity to neural stem cells. Clonal populations of the bacterial peptide display libraries after the third round of selection were analyzed via flow cytometry to measure the binding capacity of the clones. Sequences of the clones were determined through DNA sequence of the plasmid expressed by the bacteria. Table 5 presents amino acid sequences of peptides and the binding capacity to NSCs of bacterial clones displaying the peptides.
# [6] = peptide hydrogel vs laminin, proliferating or differentiating media
Sequence,% NSCs with Bacteria (neural stem cells [5]) [%],further results
"CGGNGEPRGDTYRAY [bsp-RGD(15), 15 amino-acid bone sialoprotein RGD peptide]",,"maintenance of Oct4 expression (H1 hES cells; H1 cells on the IPN (~10 days)): 3 passages; hESC culture outcome (Oct4, survival) (H1 hES cells): high Oct4 levels in large hESC colonies; nestin expression (qRT-PCR) (neural stem cells [1]; 21 pmol·cm^−2 peptide hydrogel vs laminin, 1.2 nM FGF-2): statistically indistinguishable levels of nestin; GFAP expression (qRT-PCR) (neural stem cells [1]; [6]): equal levels; β-tubulin III expression (qRT-PCR) (neural stem cells [1]; [6]): equal levels; NSC proliferation (neural stem cells [2]; highest peptide density, vs laminin-coated surfaces, p<0.05): slightly faster cell proliferation than standard laminin-coated surfaces; cell adhesion on IPN with lower peptide density (neural stem cells [2]; lower or no bsp-RGD(15), proliferating media): cells did not adhere effectively; cell proliferation (neural stem cells [3]): much higher amount of cell proliferation than 7C-9 and 7C-24-grafted surfaces; activation of Akt (Akt): activation of Akt to a greater extent than a surface displaying the negative control bsp-RGE(15) peptide"
"CGGNGEPRGETYRAY [bsp-RGE(15), negative control peptide]",,"hESC culture outcome (Oct4, survival) (H1 hES cells): cells predominantly died; cell attachment (neural stem cells [4]): below the detection limit of the assay; neuronal differentiation / neuronal marker expression (neural stem cells [1]; as bsp-RGD(15) density was decreased and this peptide increased): neuronal differentiation decreased; cell adhesion and morphology on peptide-modified IPN (neural stem cells [2]; proliferating media conditions (20 ng/ml FGF-2)): did not support attachment; cell proliferation (neural stem cells [3]): little or no cells detached"
DHKFGLVMLNKYAYAG [Clone 15-2],75.9,
DLCTYGHLWLGNGRP [Clone 15-59],22.5,
ESCWYQIMYKCAN [Clone 7C-2],55.2,
ESGLKVMCMKYYCMA [Clone 15-52],63.3,
FWCIRGEYWVCDR [Clone 7C-12],64.5,
GECFYYVMNTCVW [Clone 7C-6],61.8,
GFVLVWSYTCRCWGK [Clone 15-50],64.9,
GGCRWYAKWVCVW [Co-3],75.7,
IWCGSRFGCWCKP [Clone 7C-5],65.6,
KLCCFDKGYYCMR [Clone 7C-9],71.3,"cell proliferation at similar surface peptide concentration (neural stem cells [3]; low peptide surface concentrations, vs RGD surfaces): slower proliferation"
LCCESYICALCHY [Clone 7C-11],37.7,
LECPGESKYYCIY [Co-11],72.7,
LECTERGDFNCFV [Clone 7C-7],47.8,
LEDAMGWALSWGHIW [Clone 15-6],70.2,
LNCAMYNACIW [Clone 7C-14],54.5,
LVCNRQNPWVCYI [Co-23],71.1,
MYCERDSKYWCIH [Co-21],70.9,
QCCQLRGDAVCNC [Clone 7C-15],54.0,
QGCAFVTYWACIF [Co-16],71.9,
RLCCWKTQYFCEI [Co-20],70.9,
RRELVRMTDWVWVSG [Clone 15-32],70.4,
SDWSVLLSCERWYCI [Clone 15-16],63.9,

Sequence,% NSCs with Bacteria (neural stem cells [5]) [%],further results
SKCWGWTPYYCVA [Co-9],75.7,
SLCAAYNRWACIW [Co-1],73.8,
STCSWVSSYVCIM [Co-13],64.8,
VWCGMFGKRRCVT [Co-22],75.6,
WDCGKKNAWMCIW [Co-5],67.4,
WECAEESKFWCVF [Co-17],72.1,
WFCLLGRSAYCVR [Clone 7C-3],71.9,
WLCKGSNKYMCEW [Clone 7C-17],67.8,
WLCLDKNCMACVW [Clone 7C-8],68.8,
WMCSGVQPNACVW [Clone 7C-22],46.9,
WNCIKGSSWACVW [Clone 7C-21],75.5,
WQCGRFWCIHCLW [Co-19],50.6,
WRCLGDGYHACVR [Co-10],72.7,
WSCPKVNQYACFW [Co-2],74.8,
WTWESAFAGRWEVGD [Co-8],61.7,
WVCIWERFKSCNE [Clone 7C-20],65.7,
WVCLWRHRGDCSI [Co-12],74.3,
WVCNDLIHHFCVW [Co-15],70.9,
WVCNKLGVYACEY [Clone 7C-19],20.5,
WWCDMRGDSRCSG [Clone 7C-24],61.7,
WWCKKPEYWYCIW [Co-18],71.3,
WYCFRENKYVCVM [Clone 7C-1],75.2,
YMCMSRGDATCDV [Clone 7C-4],62.0,
